Data reported in patent US7214826B2, “Amine compounds and inhibiting neurotransmitter reuptake” (Mayo Foundation for Medical Education and Research, priority 2001, dated 2007).

Assays:
[1] = biological target: T1, human dopamine transporter (hDAT) (Homo sapiens, UniProt Q01959); assay: Human transporter binding studies: radioligand binding to cloned hDAT ([3H]WIN35428); settings: for Kd: HEK-293 cell membranes, 1 nM [3H]WIN35428, 22° C., 1 hour, geometric mean of at least three experiments; for specificity for hDAT compared to venlafaxine (in words): comparison of Kd values with venlafaxine
T1 construct: expressed in transfected cells
T1 sequence (Q01959 whole entry): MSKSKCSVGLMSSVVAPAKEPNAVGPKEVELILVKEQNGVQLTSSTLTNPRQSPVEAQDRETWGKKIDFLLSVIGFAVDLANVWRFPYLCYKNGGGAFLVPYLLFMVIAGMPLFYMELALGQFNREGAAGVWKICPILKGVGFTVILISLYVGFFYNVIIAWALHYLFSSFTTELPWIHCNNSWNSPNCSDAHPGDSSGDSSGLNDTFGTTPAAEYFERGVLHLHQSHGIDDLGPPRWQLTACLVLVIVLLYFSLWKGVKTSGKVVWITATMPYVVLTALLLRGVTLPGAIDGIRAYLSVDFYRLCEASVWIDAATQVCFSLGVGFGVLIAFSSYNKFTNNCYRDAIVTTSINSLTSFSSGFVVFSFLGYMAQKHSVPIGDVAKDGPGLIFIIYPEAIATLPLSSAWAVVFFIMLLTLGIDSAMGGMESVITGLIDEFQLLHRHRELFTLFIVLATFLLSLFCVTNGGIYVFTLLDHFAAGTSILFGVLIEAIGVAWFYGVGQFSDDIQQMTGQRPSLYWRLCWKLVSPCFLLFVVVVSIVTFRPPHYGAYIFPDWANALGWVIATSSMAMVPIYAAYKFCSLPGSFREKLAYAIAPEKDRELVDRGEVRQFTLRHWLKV
Experimental: (§1) The cells were incubated in 10% CO2, 90% air at 37° C. and 100% humidity. The hNET cell cultures contained 250 μg/mL geneticin sulfate. The cells were grown to 70–80% confluency prior to harvesting.
(§2) Cell membranes containing hSERT, hNET, or hDAT were prepared from the cell lines to assay ligand binding for each of the transporters. […] The washed cells were incubated for 5 minutes at 38° C. in 10 mL solution 1 containing 100 mM ethylene glycol-bis N,N,N′,N′-tetraacetic acid (EGTA). The cells were then scraped from the flask surface with a rubber spatula, placed into a centrifuge tube, and collected by centrifugation at 1000×g for 5 minutes at 4° C. The resulting supernatant was discarded, and the cell pellet was resuspended in 0.5 to 1.0 mL of the appropriate binding buffer (described below). The resuspended cell pellet was homogenized using a Polytron for 10 seconds at setting 6. The resulting homogenate was centrifuged at about 36,000×g for 10 minutes at 4° C. The supernatant was discarded, and the pellet was resuspended in the same volume of the appropriate binding buffer and centrifuged again. The supernatant was discarded, and the final pellet containing cell membranes was resuspended in the appropriate binding buffer and stored at −80° C. until use.
To assess binding to the cloned hDAT, cells expressing hDAT were homogenized in 50 mM Tris-HCl with 120 mM NaCl (pH 7.4). […] The reactions were incubated at 22° C. for 1 hour. Following incubation, the reactions were terminated by rapid filtration through separate GF/B filter strips pretreated with 0.2% polyethylenimine in a 48-well Brandel cell harvester. The cell membrane-containing filter strips were then rinsed five times with ice-cold 0.9% NaCl. After rinsing, individual filters were cut from the strip and placed in a scintillation vial containing 6.5 mL of Redi-Safe (Beckman Instruments, Fullerton, Calif.). Radioactivity was measured with a Beckman liquid scintillation counter (LS 5000TD).
(§3) The program was modified to calculate the Hill coefficient (nH). Data are presented as geometric mean ±S.E.M. of at least three independent experiments. One-component models and two-component models were compared using the root mean square error of each fit and the F test.

[2] = biological target: T2, human serotonin transporter (hSERT) (Homo sapiens, UniProt P31645); assay: Human transporter binding studies: radioligand binding to cloned hSERT ([3H]imipramine); settings: for Kd: HEK-293 cell membranes, 1.0 nM [3H]imipramine, 22° C., 60 minutes, geometric mean of at least three experiments; for specificity for hSERT relative to hNET and hDAT (in words): comparison of Kd values between transporters; for specificity for hSERT compared to venlafaxine (in words): comparison of Kd values with venlafaxine
T2 construct: expressed in transfected cells
T2 sequence (P31645 whole entry): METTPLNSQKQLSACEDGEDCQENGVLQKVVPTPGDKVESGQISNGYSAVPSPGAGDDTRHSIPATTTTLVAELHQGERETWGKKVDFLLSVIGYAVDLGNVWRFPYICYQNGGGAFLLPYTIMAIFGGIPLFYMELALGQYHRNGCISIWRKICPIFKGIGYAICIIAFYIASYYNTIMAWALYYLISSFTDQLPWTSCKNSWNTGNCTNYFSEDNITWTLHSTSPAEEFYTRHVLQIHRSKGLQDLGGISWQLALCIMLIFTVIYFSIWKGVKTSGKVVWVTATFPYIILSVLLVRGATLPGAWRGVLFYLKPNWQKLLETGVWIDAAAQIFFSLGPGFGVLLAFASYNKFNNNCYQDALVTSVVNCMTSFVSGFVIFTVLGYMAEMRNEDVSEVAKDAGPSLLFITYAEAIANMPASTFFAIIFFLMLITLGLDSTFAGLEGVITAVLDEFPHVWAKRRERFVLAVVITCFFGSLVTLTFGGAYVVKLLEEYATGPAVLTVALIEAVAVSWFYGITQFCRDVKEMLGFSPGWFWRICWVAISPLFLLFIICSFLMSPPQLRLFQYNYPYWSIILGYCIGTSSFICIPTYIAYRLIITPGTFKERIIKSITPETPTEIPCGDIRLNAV
Experimental: as §1, §2
Radioligand binding assays for the indicated transporters were performed as follows. To assess binding to the cloned hSERT, cells expressing hSERT were homogenized in 50 mM Tris-HCl with 120 mM NaCl and 5 mM KCl (pH 7.4). […] The reactions were incubated at 22° C. for 60 minutes. Following incubation, the reactions were terminated by rapid filtration through separate GF/B filter strips pretreated with 0.2% polyethylenimine in a 48-well Brandel cell harvester. The cell membrane-containing filter strips were then rinsed five times with ice-cold 0.9% NaCl. After rinsing, individual filters were cut from the strip and placed in a scintillation vial containing 6.5 mL of Redi-Safe (Beckman Instruments, Fullerton, Calif.). Radioactivity was measured with a Beckman liquid scintillation counter (LS 5000TD).
as §3

[3] = biological target: T3, human norepinephrine transporter (hNET) (Homo sapiens, UniProt P23975); assay: Human transporter binding studies: radioligand binding to cloned hNET ([3H]nisoxetine); settings: for Kd: HEK-293 cell membranes, 0.5 nM [3H]nisoxetine, 22° C., 60 minutes, geometric mean of at least three experiments; for specificity for hNET compared to venlafaxine (in words): comparison of Kd values with venlafaxine
T3 construct: expressed in transfected cells
T3 sequence (P23975 whole entry): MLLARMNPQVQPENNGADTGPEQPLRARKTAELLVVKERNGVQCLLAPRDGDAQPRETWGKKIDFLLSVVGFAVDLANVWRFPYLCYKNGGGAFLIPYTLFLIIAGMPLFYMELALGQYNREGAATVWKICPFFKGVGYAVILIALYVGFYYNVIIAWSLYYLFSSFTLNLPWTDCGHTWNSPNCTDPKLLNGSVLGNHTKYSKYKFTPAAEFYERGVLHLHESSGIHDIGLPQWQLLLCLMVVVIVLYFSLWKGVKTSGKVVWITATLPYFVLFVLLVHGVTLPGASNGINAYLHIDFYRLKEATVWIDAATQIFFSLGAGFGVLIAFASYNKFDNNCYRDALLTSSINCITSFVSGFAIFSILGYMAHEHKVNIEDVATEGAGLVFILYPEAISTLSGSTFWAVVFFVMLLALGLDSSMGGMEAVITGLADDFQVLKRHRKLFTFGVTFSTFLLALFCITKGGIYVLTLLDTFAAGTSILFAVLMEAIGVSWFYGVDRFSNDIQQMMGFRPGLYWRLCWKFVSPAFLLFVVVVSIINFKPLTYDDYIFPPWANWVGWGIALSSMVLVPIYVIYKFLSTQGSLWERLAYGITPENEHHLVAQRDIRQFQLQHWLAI
Experimental: as §1, §2
To assess binding to the cloned hNET, cells expressing hNET were homogenized in 50 mM Tris-HCl with 300 mM NaCl and 5 mM KCl (pH 7.4). […] A reaction to determine non-specific binding consisted of 25 μg cell membrane protein, 0.5 nM [^3H]nisoxetine, and 1 μM final concentration of unlabeled nisoxetine. The reactions were incubated at 22° C. for 60 minutes. Following incubation, the reactions were terminated by rapid filtration through separate GF/B filter strips pretreated with 0.2% polyethylenimine in a 48-well Brandel cell harvester. The cell membrane-containing filter strips were then rinsed five times with ice-cold 0.9% NaCl. After rinsing, individual filters were cut from the strip and placed in a scintillation vial containing 6.5 mL of Redi-Safe (Beckman Instruments, Fullerton, Calif.). Radioactivity was measured with a Beckman liquid scintillation counter (LS 5000TD).
as §3

Row | Compound | Kd [1] | specificity for hDAT compared to venlafaxine (in words) [1] | Kd [2] | specificity for hSERT relative to hNET and hDAT (in words) [2] | specificity for hSERT compared to venlafaxine (in words) [2] | Kd [3] | specificity for hNET compared to venlafaxine (in words) [3] | binding to hNET ranked among all compounds tested (in words) [3] | specificity for hNET relative to hSERT and hDAT (in words) [3]
1 | CC(C)[C@@H](O)[C@H](CN(C)C)c1ccc2ccccc2c1 [Compound D2, (2S, 3R)-N,N-dimethyl-3-hydroxy-4-methyl-2-(2′-naphthyl)pentylamine] | 800 nM | greater specificity for all three transporters compared to venlafaxine | 2.6 nM | greater specificity for hSERT than for hNET or hDAT | greater specificity for all three transporters compared to venlafaxine | 60 nM | greater specificity for all three transporters compared to venlafaxine | – | –
2 | CC(C)C(O)C(CN)c1ccc2ccccc2c1 (single isomer, unassigned) [Compound C1] | 1280 nM | greater specificity for all three transporters compared to venlafaxine | 7 nM | greater specificity for hSERT than for hNET of hDAT | greater specificity for all three transporters compared to venlafaxine | 150 nM | greater specificity for all three transporters compared to venlafaxine | – | –
3 | NCC(c1ccc2ccccc2c1)C(O)c1ccccc1 (racemic) [E, racemic mixture of (2S, 3R)- and (2R, 3S)-3-hydroxy-2-(2′naphthyl)-3-phenylpropylamine] | 420 nM | greater specificity for hDAT compared to vanlafaxine | – | – | – | – | – | – | –
4 | CC(C)C(O)C(CN(C)C)c1ccc2ccccc2c1 (racemic) [Compound D, racemic mixture of (2R, 3S)- and (2S, 3R)-N,N-dimethyl-3-hydroxy-4-methyl-2-(2′naphthyl)pentylamine] | 180 nM | more potent inhibitor of all three transporters compared to vanlafaxine | 0.3 nM | stronger binding to hSERT than to hNET or hDAT | more potent inhibitor of all three transporters compared to vanlafaxine | 14.6 nM | more potent inhibitor of all three transporters compared to vanlafaxine | – | –
5 | CN(C)C[C@H](c1ccc2ccccc2c1)[C@@H](O)c1ccccc1 (racemic) [F, racemic mixture of (2S, 3R)- and (2R, 3S)-N,N-dimethyl-3-hydroxy-2-(2′-naphthyl)-3-phenylpropylamine] | – | greater specificity for hDAT compared to vanlafaxine | – | – | – | – | – | – | –
6 | CNCC(c1ccc2ccccc2c1)C(O)c1ccccc1 (racemic) [Compound B, racemic mixture of (2S, 3R)- and (2R, 3S)-N-methyl-3-hydroxy-2-(2′-naphthyl)-3-phenylpropylamine] | 390 nM | greater specificity for hDAT than the parent analogue venlfaxine | – | – | – | – | – | – | –
7 | CC(C)C(O)C(CN)c1ccc2ccccc2c1 (racemic) [Compound C, racemic mixture of (2R, 3S)- and (2S, 3R)-3-hydroxy-4-methyl-2-(2′-naphthyl)pentylamine] | 880 nM | greater specificity for all three transporters compared to venlafaxine | 5.7 nM | more potent inhibitor of hSERT than of hNET or hDAT | greater specificity for all three transporters compared to venlafaxine | 329 nM | greater specificity for all three transporters compared to venlafaxine | – | –
8 | CC(C)C(O)C(CN)c1ccc2ccccc2c1 (single isomer, unassigned) [Compound C2] | 1600 nM | greater specificity for all three transporters compared to venlafaxine | 15.1 nM | greater specificity for hSERT than for hNET of hDAT | – | 140 nM | – | – | –
9 | CC(C)[C@H](O)[C@@H](CN(C)C)c1ccc2ccccc2c1 [Compound D1, (2R, 3S)-N,N-dimethyl-3-hydroxy-4-methyl-2-(2′-naphthyl)pentylamine] | 150 nM | greater specificity for all three transporters compared to venlafaxine | 4.2 nM | – | greater specificity for all three transporters compared to venlafaxine | 7.4 nM | greater specificity for all three transporters compared to venlafaxine | – | –
10 | CNCC(c1ccc2ccccc2c1)C(O)c1ccccc1 (racemic) [Compound A, racemic mixture of (2R, 3R)- and (2S, 3S)-N-methyl-3-hydroxy-2-(2′-naphthyl)-3-phenylpropylamine] | 130 nM | – | 6.3 nM | – | – | 0.25 nM | – | strongest binding to hNET of all the compounds tested | greater specificity for hNET than for hSERT or hDAT
